Here are results for 1 compound from BindingDB's records for doi:10.1021/acs.jmedchem.8b00990 (China Pharmaceutical University, 2019).

Molecules are shown by their SMILES.

Experiment [1] in a line: Inhibition of mouse PDL1 in mouse splenocytes assessed as rescue of splenocyte effector function.
A short description of experiment [2]: Inhibition of mouse PDL2 in mouse splenocytes assessed as rescue of splenocyte effector function.

One may read the EC50 as the midpoint of the concentration-response curve. Regarding `C[C@@H](O)[C@H](NC(=O)N[C@@H](CC(N)=O)C(=O)NNC(=O)[C@@H](N)CO)C(=O)O`, the EC50 in experiment [1] turned out to be 30 nM; in experiment [2], 40 nM.
